Measured values reported in US12042501B2, “Metal protoporphyrin for treatment of BK virus” (Renibus Therapeutics, Inc., priority 2021, dated 2024).
Entries after “also recorded” stand apart in the source; their conditions may differ. Read-outs that look alike come from different tables or passages of the source.

Legend:
[1] = system: BK Virus; test: BK virus viral neutralization assay (pre-incubation of SnPP with BK virus for 1 hour prior to infection), qPCR; format: cell-based, strain Gardner; conditions: for EC50 / EC90 / SI50 / SI90: experiment 21-bk2-004; for EC50 / EC90: Secondary (Neutralization, pre-incubation of virus), BK Virus Gardner in HFF, qPCR (DNA); for SI50 / SI90: Secondary (Neutralization); for SI50: CC50/EC50; for SI90: CC50/EC90
[2] = system: HFF cells; test: Cellular viability by CellTiter-Glo in the BK virus assays
[3] = as above; conditions: human
[4] = system: BK Virus; test: BK virus standard qPCR-based antiviral assay (treatment with SnPP at the time of infection; primary and secondary); format: cell-based, strain Gardner; conditions: for SI50: CC50/EC50; for SI90: CC50/EC90; for Activity: BK
[5] = system: enveloped viruses; conditions: in vitro; Neris et al. 2018; cited from earlier work
[6] = system: non-enveloped polio virus; conditions: in vitro; Neris et al. 2018; cited from earlier work
[7] = in vivo
[8] = system: JC virus; test: JC virus neutralization assay (pre-incubation of virus with RBT-9) in COS7 cells; format: cell-based, 1-4 strain
Experimental: The present inventors used assays to determine the antiviral activity against various pathogens, including particularly the BK virus. Two conditions were investigated: 1) standard qPCR-based antiviral assay—treatment with SnPP at the time of infection and 2) viral neutralization—pre-incubation of SnPP with BK virus for 1 hour prior to infection. SnPP was tested at concentrations up to 100 μM. Human foreskin fibroblast (HFF) cells were used as the host cell. Viral activity was assessed by real time qPCR and cellular viability was determined by CellTiter-Glo.
(§1) Primary evaluation of compounds against JC virus were also performed by methods similar to those for BK virus primary assays but were done in COS7 cells and utilized the 1-4 strain of JCV in COS7 cells. Viral DNA was quantified using primers 5′-[…]-3′ and 5′-[…]-3′ and probe 5′-6-FAM-[…]-TAMRA-3 together with the plasmid pMP508 to provide a standard curve for absolute quantification. Secondary assays against JCV were also performed in COS7 cells by methods similar to those for BK virus to identify compounds that inhibited adsorption or penetration of the virus. • EC50—compound concentration that reduces viral replication by 50% • EC90—compound concentration that reduces viral replication by 90% • CC50—compound concentration that reduces cell viability by 50% • SI50—CC50/EC50 • SI90—CC50/EC90

[9] = system: Adenovirus (Adv); test: AdV primary antiviral assay; format: cell-based
[10] = system: acute kidney injury (AKI); conditions: animals; given prior to insult; cited from earlier work
[11] = system: JC virus; test: JC virus qPCR antiviral assay in COS7 cells (primary/standard); format: cell-based, 1-4 strain; conditions: for Activity / EC50 / EC90 / SI50: JC; for Activity: Non-enveloped; for SI50: CC50/EC50
Experimental: as §1

[12] = system: HPV (HPV11); test: HPV primary antiviral assay; format: cell-based, Human Papilloma Virus
[13] = system: CMV; test: CMV primary antiviral assay; format: cell-based
[14] = experiment 21-bk2-003, Primary (Standard), HFF, CellTiter-Glo
[15] = experiment 21-bk2-004, Secondary (Neutralization), HFF, CellTiter-Glo
[16] = experiment 21-bk2-001, Secondary
[17] = experiment 21-bk2-003, Primary (Standard)

Nc1ccn(C[C@@H](CO)OCP(=O)(O)O)c(=O)n1 [Cidofovir, reference compound]
EC50 ([1]; Betapolyomavirus hominis): > 100 µM
EC90 ([1]; Betapolyomavirus hominis): > 100 µM
SI50 [1]: 1
SI90 [1]: 1
CC50 [2, 14]: > 100 µM
CC50 [2, 15]: > 100 µM
CC50 [3]: > 100 µM
CC50 ([3]; CC50, experiment 20-bk-007, Primary, HFF, CellTiter-Glo): > 150 µM
EC90 ([4]; Betapolyomavirus hominis, experiment 20-bk-007, Primary, BK Virus Gardner in HFF, qPCR (DNA)): 117 µM
EC50 ([4]; Betapolyomavirus hominis, experiment 20-bk-007, Primary, BK Virus Gardner in HFF, qPCR (DNA), read-out: EC50): 6.28 µM
EC90 ([4]; Betapolyomavirus hominis, experiment 21-bk2-001, Secondary, BK Virus Gardner in HFF, qPCR (DNA)): 10.7 µM
EC50 ([4]; Betapolyomavirus hominis, experiment 21-bk2-001, Secondary, BK Virus Gardner in HFF, qPCR (DNA), read-out: EC50): 0.72 µM
EC90 ([4]; Betapolyomavirus hominis, experiment 21-bk2-003, Primary (Standard), BK Virus Gardner in HFF, qPCR (DNA)): 17.9 µM
EC50 ([4]; Betapolyomavirus hominis, experiment 21-bk2-003, Primary (Standard), BK Virus Gardner in HFF, qPCR (DNA), read-out: EC50): 0.13 µM
SI50 ([4]; experiment 20-bk-007, Primary): >24
SI90 ([4]; experiment 20-bk-007, Primary): >1
SI50 [4, 16]: >139
SI90 [4, 16]: >9
SI50 [4, 17]: >769
SI90 [4, 17]: >6

C=Cc1c(C)c2cc3[nH]c(cc4nc(cc5nc(cc1[nH]2)C(C)=C5CCC(=O)[O-])C(CCC(=O)[O-])=C4C)c(C)c3C=C.[Co+2] [Cobalt protoporphyrin, Co-protoporphyrin IX, reference compound]
antiviral activity against enveloped viruses [5]: broad antiviral activity
activity against polio virus [6]: no activity

C=CC1=C(C)c2cc3[n-]c(cc4[n-]c(cc5nc(cc1n2)C(C)=C5C=C)c(C)c4CCC(=O)O)c(CCC(=O)O)c3C.[Sn+2] [SnPP, Stannous protoporphyrin]
tolerability [7]: well tolerated
Activity ([8]; Non-enveloped, Secondary (Neutralization, pre-incubation of virus with RBT-9)): MINIMAL
EC50 ([8]; Secondary (Neutralization)): 18.9 µM
EC90 ([8]; Secondary (Neutralization)): > 20 µM
SI50 ([8]; Secondary (Neutralization), CC50/EC50): 4
Activity ([1]; BK, Secondary (Neutralization) (21-bk2-004)): MODERATE
SI50 [1]: 15
SI90 [1]: 3
EC50 [1]: 5.4 µM
EC90 [1]: 32.9 µM
antiviral activity against enveloped viruses [5]: broad antiviral activity
concentration not adversely affecting host cell viability, times higher than effective concentration ([2]; CC50 average versus effective concentration, BK virus assays): 16.5 times
CC50 ([2]; experiment 20-bk-007, Primary, HFF, CellTiter-Glo): 62.3 µM
CC50 ([2]; experiment 21-bk2-001, Secondary, HFF, CellTiter-Glo): 95.8 µM
CC50 [2, 14]: 82.7 µM
CC50 [2, 15]: 82.7 µM
CC50 ([2]; read-out: 50% cytotoxic concentration (CC50), average, averaged in the in vitro studies, host cell viability): 89.2 µM
activity against polio virus [6]: no activity
Activity ([4]; Primary (20-bk-007)): MODERATE
Activity ([4]; Primary (Standard) (21-bk2-003)): MODERATE
Activity ([4]; Secondary (21-bk2-001)): HIGH
EC50 ([4]; averaged in 2 independently run standard qPCR assays, BK virus, read-out: 50% effective concentration (EC50), average): 5.5 µM
antiviral / inactivating activity against BK virus (in words) ([4]; both treatment conditions): broad inactivating activity; also recorded: moderate antiviral activity; also recorded: most significant activity
EC90 ([4]; experiment 20-bk-007, Primary, BK Virus Gardner in HFF, qPCR (DNA)): 26.6 µM
EC50 ([4]; experiment 20-bk-007, Primary, BK Virus Gardner in HFF, qPCR (DNA), read-out: EC50): 8.08 µM
SI50 ([4]; experiment 20-bk-007, Primary): 8
SI90 ([4]; experiment 20-bk-007, Primary): 2
EC90 ([4]; experiment 21-bk2-001, Secondary, BK Virus Gardner in HFF, qPCR (DNA)): 30.1 µM
EC50 ([4]; experiment 21-bk2-001, Secondary, BK Virus Gardner in HFF, qPCR (DNA), read-out: EC50): 2.4 µM
SI50 [4, 16]: 40
SI90 [4, 16]: 3
EC90 ([4]; experiment 21-bk2-003, Primary (Standard), BK Virus Gardner in HFF, qPCR (DNA)): 81.8 µM
EC50 ([4]; experiment 21-bk2-003, Primary (Standard), BK Virus Gardner in HFF, qPCR (DNA), read-out: EC50): 8.6 µM
SI50 [4, 17]: 10
SI90 [4, 17]: 1
inactivating activity against Adenovirus (in words) [9]: not found; also recorded: Minimal to no activity
Activity ([9]; AdV, Non-enveloped, Primary): NONE
EC50 ([9]; AdV, Primary): > 30 µM
EC90 ([9]; AdV, Primary): > 30 µM
SI50 ([9]; AdV, Primary, CC50/EC50): <1
protection against acute kidney injury (AKI) [10]: protective
inactivating activity against JC virus (in words) [11]: moderate inactivating activity
Activity ([11]; Primary): MODERATE
Activity ([11]; Primary (Standard)): MODERATE
EC50 ([11]; Primary): 5.38 µM
EC90 ([11]; Primary): > 30 µM
EC50 ([11]; Primary (Standard)): 9.93 µM
EC90 ([11]; Primary (Standard)): 63.1 µM
SI50 ([11]; Primary (Standard)): 7
SI50 ([11]; Primary): 19
inactivating activity against HPV (in words) [12]: not found; also recorded: Minimal to no activity
Activity ([12]; HPV (HPV11), Non-enveloped, Primary): MINIMAL
EC50 ([12]; HPV (HPV11), Primary): 23.4 µM
EC90 ([12]; HPV (HPV11), Primary): > 30 µM
SI50 ([12]; HPV (HPV11), Primary, CC50/EC50): 5
EC50 [13]: > 6 µM
EC90 [13]: > 6 µM
SI50 ([13]; CC50/EC50): <3
Activity ([13]; Enveloped): NONE
